This note sets out measurements from PMC11222247, “PEGylation renders carnosine resistant to hydrolysis by serum carnosinase and increases renal carnosine levels” (Amino Acids, 2024).

The target of data set [1] is T1, carnosinase-1 (recombinant Human CN-1) (Homo sapiens, UniProt Q96KN2).
T1 construct: purchased Novoprotein Company, Suzhou, China
T1 sequence (Q96KN2 26-507): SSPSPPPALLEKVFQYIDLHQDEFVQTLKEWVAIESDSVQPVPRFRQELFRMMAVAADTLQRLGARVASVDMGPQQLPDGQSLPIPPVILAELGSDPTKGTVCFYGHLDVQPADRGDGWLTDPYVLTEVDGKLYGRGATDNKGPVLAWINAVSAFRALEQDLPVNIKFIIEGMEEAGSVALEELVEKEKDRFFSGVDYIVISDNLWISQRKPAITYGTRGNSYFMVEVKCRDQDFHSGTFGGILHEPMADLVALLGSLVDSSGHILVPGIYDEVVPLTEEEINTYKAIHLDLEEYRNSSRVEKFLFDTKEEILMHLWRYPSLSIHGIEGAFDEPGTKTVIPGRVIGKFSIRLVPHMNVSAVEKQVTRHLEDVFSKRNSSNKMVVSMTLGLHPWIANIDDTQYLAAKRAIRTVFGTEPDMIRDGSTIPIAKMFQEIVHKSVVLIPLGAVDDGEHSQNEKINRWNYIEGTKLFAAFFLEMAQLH
The experiment in a line: Enzymatic hydrolysis by carnosinase-1 (histidine release, fluorometric assay). It is filed as biochemical. As to conditions: for Fluorescence (proportional to histidine release) on incubation with recombinant CN-1: 1 mM substrate, Tris/HCl 50 mM pH 7.5, 30 °C, 5-80 min, Fig. 3; for Hydrolysis in human serum: as worded in the abstract: human serum. As for the experimental part: The resistance of the PEG-car to the enzymatic hydrolysis by carnosinase-1 was assayed by a previously designed enzymatic activity test (Lenney et al. [1982]). Briefly, PEG, PEG-car and L-carnosine (1 mM) respectively were incubated in Tris/HCl buffer (50 mM, pH 7.5) at 30 °C with carnosinase-1 (recombinant Human CN-1, Novoprotein Company, Suzhou, China). Aliquots of each sample taken after 5, 10, 20, 30, 40, 60, 80 min, and the enzymatic reaction was stopped by addition of 50 µL of 1% trichloroacetic acid (TCA). After addition of 50 µL of 5 mg/mL o-pthaldialdehyde dissolved in 2 M NaOH and incubation for 30 min at 30 °C, the amount of liberated histidine was quantified by fluorometric assay conducted by a multifunctional enzyme marker reader.

A short description of data set [2]: Pharmacokinetics in serum of mice after single intravenous injection (LC-MS/MS). It is filed as in vivo, C57BL/6J mice. As to conditions: for half-life: 1000 mg/kg i.v. single injection, noncompartmental, naive pooled; for AUC: 0 to 240 min sampling. On the procedure:
(§1) Six- to eight-week-old male C57BL/6J (20–25 g) mice were purchased from Sino-British SIPPR/BK Lab Animal Ltd (Shanghai, China). After ad libitum feeding for one week, the mice were randomly divided into three groups: the control group (n = 3, saline treated), the PEG-car treated group (n = 3) and the L-carnosine treated group (n = 3). Hereof, each mouse was respectively injected intravenously (i.v.) with saline, PEG-car (1000 mg/kg) or L-carnosine (1000 mg/kg) through the tail vein. The mice were anaesthetized by the inhalation of isoflurane during the injection. Blood samples were collected in EDTA tubes by cardiac puncture at 0, 5, 15, 30, 60, 120, 240 min after the administration of PEG-car or L-carnosine. Sera were obtained by centrifugation of the blood sample at 6800 g for 6 min at 4 ℃. Right after sacrifice, the mice were perfused by phosphate-buffered saline to remove the remaining blood. The brains and kidneys were carefully isolated thereafter. The tissues were stored at − 80 ℃and the sera were stored at − 20 ℃ untill use.
(§2) PEG-car or L-carnosine levels in serum and tissues were determined by liquid chromatography tandem-mass spectrometry (LC-MS/MS). Warfarin (Sigma-Aldrich, St. Louis, MO, USA) was used as internal standard (IS). The entire procedure for sample and standard preparation was carried out on ice. An aliquot of 20 µL serum or homogenized 40 mg tissue were pipetted into centrifuge tube and then 400 µL methanol was added for protein precipitation. After spiking the IS (40 ng for serum and 4 ng for kidney), the samples were vortexed for 1 min and then centrifuged at 18,000 g for 7 min at 4 ℃. The supernatant was used for the assay. The calibration curves were prepared by spiking the known concentrations of PEG-car or L-carnosine into serum or tissue homogenates obtained from untreated mice.
(§3) The concentrations were measured by a UHPLC system (Shimadzu LC-40D XS, Japan) coupled with electrospray ionization (ESI) and triple quadrupole-ion trap mass spectrometry (AB SCIEX QTRAP® 6500+, Singapore). PEG-car was performed in ACQUITY UPLC BEH C18 column (2.1 mm×50 mm, 1.7 μm, Waters, USA) with a 0.6 mL/min flow rate of mobile phase using gradient elution of ultrapure water (2mM Ammonium acetate (Sinopharm Chemical Reagent Co., Ltd, Shanghai, China) containing 0.1% formic acid, eluent A) and acetonitrile (2mM Ammonium formate (Sinopharm Chemical Reagent Co., Ltd, Shanghai, China) containing 0.1% formic acid, eluent B). The solvent gradient was changed according to the following program: 0–0.01 min 10%B, 0.01–0.6 min 10-90%B, 0.6–1.2 min 90%B, 1.2–1.21 min 90%-10%B, 1.21–1.5 min 10%B. L-carnosine was performed in ACQUITY UPLC BEH Amide column (2.1 mm×50 mm, 1.7 μm, Waters, USA) with a 0.6 mL/min flow rate of mobile phase using gradient elution of ultrapure water (2mM Ammonium acetate containing 0.1% formic acid, eluent A) and acetonitrile (2mM Ammonium formate containing 0.1% formic acid, eluent B). The solvent gradient was as follows: 0–0.01 min 90%B, 0.01–0.6 min 90%-40%B, 0.6–1.2 min 40%B, 1.2–1.21 min 40-90%B, 1.21–1.5 min 90%B. The injection volume was 5 µL. The QTRAP® 6500 + was operated in positive mode, multiple reaction monitoring (MRM) in unit resolution for Q1 and Q3. For detection of PEG-car, three transitions were set with a Q1 mass of 776.4, and Q3 masses of 109.9 (Collision Energy (CE) 119), 126.8 (CE 51), 707.2 (CE 38). For L-carnosine, four transitions were set with a Q1 mass of 227.3, and Q3 masses of 83.1 (CE 53), 110.0(CE 31), 156.2(CE 21), 210.2(CE 16). Pharmacokinetic parameters were calculated by noncompartmental analysis using a sparse sampling and naïve pooled approach (Phoenix WinNonLin 7.0, Certara, Mountain View, CA, USA).

Data set [3] in a line: Pharmacokinetics in kidney of mice after single intravenous injection (LC-MS/MS). It is filed as in vivo, C57BL/6J mice. As to conditions: for half-life: 1000 mg/kg i.v. single injection, noncompartmental, naive pooled; for AUC: 0 to 240 min sampling. On the procedure: as §1, §2, §3
Where [4] appears, read: male, C57BL/6J, mouse, iv, read-out: Half-Life.
Setting [5] is: male, C57BL/6J, mouse, iv, 1000 mg/kg i.v., at 5 min.

Marks after values point to notes of the source that are not given here.

In general, half-life refers to the time in which the quantity being followed falls by half. Broadly, the AUC is concentration integrated over time. mPEG-carnosine: the “Fluorescence (proportional to histidine release) on incubation with recombinant CN-1” value in data set [1] is on record as “approximately six times lower than that of the carnosine sample”. In addition, the “Hydrolysis in human serum” value in data set [1] was “highly resistant to hydrolysis”. Also, the “Inhibition of CN-1 activity” value in data set [1] (mixture of PEG-car with L-carnosine incubated with recombinant CN-1) was “the activity of CN-1 cannot be inhibited by PEG-car”. The CL in data set [2] (1000 mg/kg i.v.) is given as 14.84 mL/min/kg; in data set [3] (1000 mg/kg i.v.) it was 3.47^d* g/min/kg. Besides, the Vss in data set [2] (1000 mg/kg i.v.) is 294* mL/kg; in data set [3] (1000 mg/kg i.v.), 830^e* g/kg. The half-life is 0.533 h in data set [2] and 168* min in data set [3]. Further, the values for the AUC in data set [2] (1000 mg/kg i.v.) and in data set [3] (1000 mg/kg i.v.) were 67,730 µg/mL·min and 173,340^c* ng/mg tissue·min, respectively. Also, the “Cmax (5 min)” value in data set [2] (1000 mg/kg i.v., at 5 min) is given as 2671 µg/mL; in data set [3] (1000 mg/kg i.v., at 5 min), 3899^b* ng/mg tissue.
One may read the clearance as the rate of elimination divided by the concentration. As usually defined, the Cmax is the maximum level reached in the sampled fluid or tissue. As for `NCCC(=O)N[C@@H](Cc1cnc[nH]1)C(=O)O` [L-carnosine, reference compound], in data set [1], the “Fluorescence (proportional to histidine release) on incubation with recombinant CN-1” value is recorded as “fluorescence increased with time” and the “Hydrolysis in human serum” value was “rapidly hydrolyzed”. Besides, the clearance in data set [2] (male, C57BL/6J, mouse, iv, 1000 mg/kg i.v.) was 15.4 mL/min/kg. Further, the half-life in data set [2] (setting [4]) was determined as 1.03 h. Further, the AUC in data set [2] (male, C57BL/6J, mouse, iv, 1000 mg/kg i.v., read-out: AUC (converted)) is 1080 µg·h/mL. The same molecule displayed a Cmax in data set [2] (setting [5]) of 2860 µg/mL. Moreover, the Vd in data set [2] (male, C57BL/6J, mouse, iv, 1000 mg/kg i.v., read-out: Vss) was determined as 0.606 L/kg. Moreover, in data set [3] (1000 mg/kg i.v.), the CL is 1.59^d g/min/kg, the Vss is 208^e g/kg and the AUC is on record as 518,040^c ng/mg tissue·min. Moreover, the half-life in data set [3] (setting [4]) is 1.75 h. The same molecule had a Cmax in data set [3] (setting [5]) of 5.91e+06 ng/g.
